The text below walks through data of patent US20050209244A1, “N{5-[4-(4-methyl-piperazino-methyl)-benzoylamido]-2-methylphenyl}-4-(3-pyridyl)-2-pyrimidine-amine coated stents” (priority 2002, published 2005).

The structures appear in SMILES notation.

One assay addresses Kdr (Homo sapiens, UniProt P35968). The settings on record: cited from earlier work.
For another assay, the target named is β-PDGF receptor (Homo sapiens, UniProt P09619). The settings on record: cited from earlier work.
In assay [1] the test system is restenotic lesion formation. The assay can be described thus: Rabbit iliac stent model, restenosis at 28 days. Format: in vivo, New Zealand White rabbit. Here is the method:
A combined angioplasty and stenting procedure is performed in New Zealand White rabbit iliac arteries. Iliac artery balloon injury is performed by inflating a 3.0×9.0 mm angioplasty balloon in the mid-portion of the artery followed by “pull-back” of the catheter for 1 balloon length. Balloon injury is repeated 2 times, and a 3.0×12 mm stent is deployed at 6 atm for 30 seconds in the iliac artery. Balloon injury and stent placement is then performed on the contralateral iliac artery in the same manner. A post-stent deployment angiogram is performed. All animals receive oral aspirin 40 mg/day daily as anti-platelet therapy and are fed standard low-cholesterol rabbit chow. Twenty-eight days after stenting, animals are anesthetized and euthanized and the arterial tree is perfused at 100 mmHg with lactated Ringer's for several minutes, then perfused with 10% formalin at 100 mmHg for 15 minutes. The vascular section between the distal aorta and the proximal femoral arteries is excised and cleaned of periadventitial tissue. The stented section of artery is embedded in plastic and sections are taken from the proximal, middle, and distal portions of each stent. All sections are stained with hematoxylin-eosin and Movat pentachrome stains. Computerized planimetry is performed to determine the area of the internal elastic lamina (IEL), external elastic lamina (EEL) and lumen. The neointima and neointimal thickness is measured both at and between the stent struts. The vessel area is measured as the area within the EEL. Data are expressed as mean±SEM. Statistical analysis of the histologic data is accomplished using analysis of variance (ANOVA) due to the fact that two stented arteries are measured per animal with a mean generated per animal. A P<0.05 is considered statistically significant.
COMPOUND is administered orally by gavage at 30 mg/kg once daily from 3 days prior to stenting until day 27 post-stenting. […] There is extensive neointimal formation in placebo-treated animals at 28 days, with the lesions consisting of abundant smooth muscle cells in proteoglycan/collagen matrix and apparent full endothelial healing. In arterial segments from the animals treated with COMPOUND I, the Intima is well healed, characterized by a compact neointima consisting of smooth muscle cells and endothelium fully covering the lumen surface both over stent struts and between struts.

For another assay, the target named is Flt-1 (Homo sapiens, UniProt P17948). The settings on record: cited from earlier work.
The test system of assay [2] is neointimal lesion formation. Kind of assay: 28 day rat carotid artery balloon injury model. Format: in vivo. The settings on record: for percent inhibition of neointimal lesion formation: 28 days post-balloon injury. Here is the method: Compounds of formula I are tested in the following rat model.
Rats are dosed orally with placebo or a compound of formula 1. Daily dosing starts 3 days prior to surgery and continues for 31 days. Rat carotid arteries are balloon injured using a method described by Clowes et al., Lab. Invest. 1983;49;208-215. Following sacrifice at 28 days post-balloon Injury, carotid arteries are removed and processed for histologic and morphometric evaluation.

In assay [3] the test system is platelet-derived growth factor (PDGF) receptor. The settings on record: in vitro; cited from earlier work.
Assay [4] addresses receptor for stem cell factor (Homo sapiens, UniProt P10721). Conditions: cited from earlier work.
The next assay has as its target α-PDGF receptor (Homo sapiens, UniProt P16234). The settings on record: cited from earlier work.
The next assay deals with Tek (Homo sapiens, UniProt Q02763). Conditions: cited from earlier work.
Tek, sequence (Q02763 23-1124, species assumed): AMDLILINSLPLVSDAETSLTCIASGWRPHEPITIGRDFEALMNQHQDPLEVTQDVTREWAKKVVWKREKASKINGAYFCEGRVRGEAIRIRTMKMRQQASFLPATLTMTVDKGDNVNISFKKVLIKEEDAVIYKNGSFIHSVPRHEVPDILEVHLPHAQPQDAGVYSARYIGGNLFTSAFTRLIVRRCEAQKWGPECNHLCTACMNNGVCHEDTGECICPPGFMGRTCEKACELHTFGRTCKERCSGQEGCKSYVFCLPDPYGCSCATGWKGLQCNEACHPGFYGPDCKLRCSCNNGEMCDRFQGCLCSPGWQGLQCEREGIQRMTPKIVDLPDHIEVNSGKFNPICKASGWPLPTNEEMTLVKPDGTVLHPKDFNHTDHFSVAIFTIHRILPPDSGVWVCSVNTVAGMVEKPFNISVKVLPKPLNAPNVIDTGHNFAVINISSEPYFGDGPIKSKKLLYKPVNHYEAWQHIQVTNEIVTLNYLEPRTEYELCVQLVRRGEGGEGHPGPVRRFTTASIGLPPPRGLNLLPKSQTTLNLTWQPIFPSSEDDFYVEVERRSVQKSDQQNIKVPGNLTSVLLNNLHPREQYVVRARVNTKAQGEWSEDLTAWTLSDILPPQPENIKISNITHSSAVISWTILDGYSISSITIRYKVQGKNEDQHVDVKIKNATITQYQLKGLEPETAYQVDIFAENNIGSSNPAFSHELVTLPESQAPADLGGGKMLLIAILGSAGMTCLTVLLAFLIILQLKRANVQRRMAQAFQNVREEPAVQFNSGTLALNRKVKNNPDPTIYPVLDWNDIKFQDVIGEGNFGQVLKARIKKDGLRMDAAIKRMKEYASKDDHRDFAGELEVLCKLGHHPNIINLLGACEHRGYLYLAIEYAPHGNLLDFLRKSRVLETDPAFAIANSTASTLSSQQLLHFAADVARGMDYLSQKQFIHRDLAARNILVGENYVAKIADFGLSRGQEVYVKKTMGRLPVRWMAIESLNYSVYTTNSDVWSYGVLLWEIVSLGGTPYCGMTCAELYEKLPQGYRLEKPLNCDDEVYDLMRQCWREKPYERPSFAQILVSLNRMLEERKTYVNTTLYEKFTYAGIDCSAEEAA
The target in a further assay is T1, Flt-3 (Homo sapiens, UniProt P36888).
T1 sequence (P36888 27-993): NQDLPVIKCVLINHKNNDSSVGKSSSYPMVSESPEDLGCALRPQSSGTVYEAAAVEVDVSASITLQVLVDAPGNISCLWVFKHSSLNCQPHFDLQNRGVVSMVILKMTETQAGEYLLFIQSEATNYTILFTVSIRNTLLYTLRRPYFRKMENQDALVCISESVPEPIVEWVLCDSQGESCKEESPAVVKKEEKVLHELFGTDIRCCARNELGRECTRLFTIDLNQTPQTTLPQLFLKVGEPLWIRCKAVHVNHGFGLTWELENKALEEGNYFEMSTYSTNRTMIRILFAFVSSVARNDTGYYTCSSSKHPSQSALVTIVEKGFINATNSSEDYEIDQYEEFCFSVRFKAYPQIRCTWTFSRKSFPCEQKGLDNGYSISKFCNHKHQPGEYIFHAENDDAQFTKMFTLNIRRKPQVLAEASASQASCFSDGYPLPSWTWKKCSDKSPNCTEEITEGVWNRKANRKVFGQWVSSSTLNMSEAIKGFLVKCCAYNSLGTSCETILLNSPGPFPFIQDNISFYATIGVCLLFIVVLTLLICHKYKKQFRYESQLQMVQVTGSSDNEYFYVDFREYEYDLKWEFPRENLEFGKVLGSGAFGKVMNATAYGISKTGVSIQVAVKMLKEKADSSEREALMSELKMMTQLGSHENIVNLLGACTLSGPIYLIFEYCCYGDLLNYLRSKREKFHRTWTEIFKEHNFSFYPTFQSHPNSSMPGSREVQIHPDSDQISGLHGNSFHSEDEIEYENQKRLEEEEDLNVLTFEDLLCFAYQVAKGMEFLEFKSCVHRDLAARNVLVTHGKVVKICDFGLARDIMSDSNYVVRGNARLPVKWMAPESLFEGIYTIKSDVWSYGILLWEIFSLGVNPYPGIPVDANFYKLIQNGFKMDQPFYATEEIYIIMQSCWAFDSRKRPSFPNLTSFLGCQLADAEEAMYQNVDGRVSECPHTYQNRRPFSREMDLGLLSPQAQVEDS
Conditions: cited from earlier work.

The next assay deals with c-Met (Homo sapiens, UniProt P08581). The settings on record: cited from earlier work.
For another assay, the target named is Jak-2 (Homo sapiens, UniProt O60674). The settings on record: cited from earlier work.
Jak-2, sequence (O60674 whole entry, species assumed): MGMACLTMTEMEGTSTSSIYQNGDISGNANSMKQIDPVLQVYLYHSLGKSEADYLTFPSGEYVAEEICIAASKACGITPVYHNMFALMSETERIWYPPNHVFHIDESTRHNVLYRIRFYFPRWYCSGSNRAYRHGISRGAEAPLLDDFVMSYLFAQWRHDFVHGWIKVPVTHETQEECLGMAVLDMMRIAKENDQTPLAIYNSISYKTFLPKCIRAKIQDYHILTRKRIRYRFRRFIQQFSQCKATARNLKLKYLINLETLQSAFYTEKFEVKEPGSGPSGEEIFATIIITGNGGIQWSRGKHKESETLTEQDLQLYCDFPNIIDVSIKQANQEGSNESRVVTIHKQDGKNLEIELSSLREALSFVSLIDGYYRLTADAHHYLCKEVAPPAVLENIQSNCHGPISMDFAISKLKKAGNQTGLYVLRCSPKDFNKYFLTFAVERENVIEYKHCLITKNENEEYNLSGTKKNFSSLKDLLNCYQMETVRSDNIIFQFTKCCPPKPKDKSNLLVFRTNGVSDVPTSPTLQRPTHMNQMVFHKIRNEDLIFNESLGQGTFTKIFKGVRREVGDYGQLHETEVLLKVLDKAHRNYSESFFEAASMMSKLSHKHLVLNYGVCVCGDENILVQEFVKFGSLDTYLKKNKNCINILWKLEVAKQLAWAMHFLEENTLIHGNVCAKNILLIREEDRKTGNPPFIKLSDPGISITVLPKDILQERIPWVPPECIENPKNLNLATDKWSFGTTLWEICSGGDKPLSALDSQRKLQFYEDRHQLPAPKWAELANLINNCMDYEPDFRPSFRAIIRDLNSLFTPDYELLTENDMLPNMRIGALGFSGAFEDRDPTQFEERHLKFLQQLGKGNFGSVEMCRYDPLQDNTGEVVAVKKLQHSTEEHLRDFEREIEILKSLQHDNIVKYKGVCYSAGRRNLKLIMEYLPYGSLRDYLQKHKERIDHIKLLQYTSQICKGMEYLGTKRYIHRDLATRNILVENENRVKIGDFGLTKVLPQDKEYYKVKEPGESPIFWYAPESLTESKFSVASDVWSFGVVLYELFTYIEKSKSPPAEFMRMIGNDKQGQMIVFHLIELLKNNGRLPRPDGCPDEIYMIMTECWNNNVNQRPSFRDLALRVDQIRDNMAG
For assay [5] the following is noted: in conjunction with COMPOUND I.
Text: Data points just spanning the IC50 of the agents alone or in combination are entered into the CalcuSyn program (CalcuSyn, Biosoft, Cambridge UK).
The mark [6] stands for this setting: 30 mg/kg orally once daily, 28 days after stenting.

α-PDGF receptor, sequence (P16234 24-1089): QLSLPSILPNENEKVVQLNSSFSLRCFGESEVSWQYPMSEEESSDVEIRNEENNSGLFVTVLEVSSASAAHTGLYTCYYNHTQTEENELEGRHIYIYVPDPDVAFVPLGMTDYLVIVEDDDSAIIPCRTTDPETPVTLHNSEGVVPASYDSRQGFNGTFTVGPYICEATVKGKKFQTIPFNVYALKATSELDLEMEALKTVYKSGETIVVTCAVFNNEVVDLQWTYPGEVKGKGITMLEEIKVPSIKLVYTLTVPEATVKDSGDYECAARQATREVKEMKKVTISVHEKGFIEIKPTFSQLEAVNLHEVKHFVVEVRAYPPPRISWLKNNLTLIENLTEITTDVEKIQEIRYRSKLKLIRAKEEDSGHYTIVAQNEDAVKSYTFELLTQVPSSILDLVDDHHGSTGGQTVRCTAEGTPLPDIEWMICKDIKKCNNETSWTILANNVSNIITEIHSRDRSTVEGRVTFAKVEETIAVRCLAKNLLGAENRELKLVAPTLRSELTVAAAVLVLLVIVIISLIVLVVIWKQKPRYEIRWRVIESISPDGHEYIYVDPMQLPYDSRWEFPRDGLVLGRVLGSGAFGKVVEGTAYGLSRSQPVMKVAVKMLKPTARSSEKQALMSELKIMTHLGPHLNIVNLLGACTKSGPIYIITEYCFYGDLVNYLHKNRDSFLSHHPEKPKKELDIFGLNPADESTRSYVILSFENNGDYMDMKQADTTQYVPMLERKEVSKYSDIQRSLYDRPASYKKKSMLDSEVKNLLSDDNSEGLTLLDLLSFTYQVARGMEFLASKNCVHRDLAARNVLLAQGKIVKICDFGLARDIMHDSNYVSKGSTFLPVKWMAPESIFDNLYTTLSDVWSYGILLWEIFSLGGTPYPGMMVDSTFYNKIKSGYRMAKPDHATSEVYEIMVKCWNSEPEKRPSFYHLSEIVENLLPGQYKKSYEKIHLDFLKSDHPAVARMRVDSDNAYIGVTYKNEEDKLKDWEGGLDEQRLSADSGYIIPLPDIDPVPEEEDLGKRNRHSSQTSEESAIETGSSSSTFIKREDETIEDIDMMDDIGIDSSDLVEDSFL
β-PDGF receptor, sequence (P09619 33-1106): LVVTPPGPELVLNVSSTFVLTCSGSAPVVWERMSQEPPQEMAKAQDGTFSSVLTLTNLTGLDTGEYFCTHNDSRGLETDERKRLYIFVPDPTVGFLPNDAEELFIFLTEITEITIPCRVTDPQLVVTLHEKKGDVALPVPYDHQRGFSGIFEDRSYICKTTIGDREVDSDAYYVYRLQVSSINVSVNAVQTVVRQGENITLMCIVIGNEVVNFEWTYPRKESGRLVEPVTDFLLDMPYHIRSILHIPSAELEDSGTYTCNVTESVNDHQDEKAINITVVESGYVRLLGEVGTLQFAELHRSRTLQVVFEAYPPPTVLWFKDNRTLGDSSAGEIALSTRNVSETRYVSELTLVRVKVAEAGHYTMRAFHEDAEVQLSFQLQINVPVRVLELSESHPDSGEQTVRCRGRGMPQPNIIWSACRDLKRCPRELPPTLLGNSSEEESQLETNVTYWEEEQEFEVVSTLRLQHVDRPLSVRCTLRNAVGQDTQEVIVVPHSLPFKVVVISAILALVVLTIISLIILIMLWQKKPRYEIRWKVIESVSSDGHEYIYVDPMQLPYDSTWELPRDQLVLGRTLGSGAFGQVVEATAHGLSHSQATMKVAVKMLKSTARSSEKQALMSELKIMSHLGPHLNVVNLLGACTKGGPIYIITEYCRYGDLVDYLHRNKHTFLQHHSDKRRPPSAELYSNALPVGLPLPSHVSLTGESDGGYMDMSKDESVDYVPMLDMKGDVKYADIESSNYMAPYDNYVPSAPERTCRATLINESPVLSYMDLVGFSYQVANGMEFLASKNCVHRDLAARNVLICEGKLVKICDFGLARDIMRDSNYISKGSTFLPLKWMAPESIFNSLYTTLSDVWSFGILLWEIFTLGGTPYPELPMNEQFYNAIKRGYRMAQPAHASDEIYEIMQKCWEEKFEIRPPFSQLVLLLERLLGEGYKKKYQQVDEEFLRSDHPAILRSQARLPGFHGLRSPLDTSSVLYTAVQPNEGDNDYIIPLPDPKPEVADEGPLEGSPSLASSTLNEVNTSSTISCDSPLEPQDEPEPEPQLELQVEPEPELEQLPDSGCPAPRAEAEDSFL

For `Cc1ccc(NC(=O)c2ccc(CN3CCN(C)CC3)cc2)cc1Nc1nccc(-c2cccnc2)n1` [COMPOUND I, N-{5-[4-(4-methyl-piperazino-methyl)-benzoylamido]-2-methylphenyl}-4-(3-pyridyl)-2-pyrimidine-amine], at Kdr, the “inhibition of kinase activity of Kdr” value is listed as “not”. At β-PDGF receptor, the “inhibition of kinase activity of β-PDGF receptor” value is reported as “potently inhibit”. In assay [1] (setting [6]), the “EEL area compared with control” value is reported as “did not result in differences” and the “intima healing in arterial segments” value is listed as “well healed”. The “reduction in average neointimal thickness” value in assay [1] (30 mg/kg orally once daily, 28 days after stenting, vs placebo, P<0.0001) turned out to be 29%. Moreover, the “reduction in percent arterial stenosis” value in assay [1] (30 mg/kg orally once daily, 28 days after stenting, vs placebo, P<0.0002) is on record as 17%. The “reduction in neointimal area” value in assay [1] (30 mg/kg orally once daily, 28 days after stenting, vs placebo, P<0.04) was found to be 17%. Besides, in [1] (rabbit iliac arteries, in-stent), the fibrin deposit entry was “reduced”. For the same compound, the “inhibition of kinase activity of Flt-1” value on Flt-1 was “not”. In assay [2] (0.5 mg/kg oral daily), the “percent inhibition of neointimal lesion formation” value came out at 17%. The “percent inhibition of neointimal lesion formation” value in assay [2] (2.0 mg/kg oral daily) turned out to be 37%. Moreover, the “neointimal lesion formation at 28 days following balloon injury” value in assay [2] (oral daily, dose of from 0.2 to 3.5 mg, preferably 0.5 to 2.0 mg/kg) is reported as “significantly reduce”. Also, the “inhibition of PDGF receptor tyrosine kinase” value in [3] is recorded as “selectively inhibits”. Further, the “inhibition of kinase activity of the receptor for stem cell factor” value in assay [4] is listed as “potently inhibit”. For the same compound, on α-PDGF receptor, the “inhibition of kinase activity of α-PDGF receptor” value is on record as “potently inhibit”. At Tek, the “inhibition of kinase activity of Tek” value is recorded as “not”. Moreover, on Flt-3, the “inhibition of kinase activity of Flt-3” value is “not”. The “inhibition of c-Met” value on c-Met is “no inhibition”. Also, at Jak-2, the “inhibition of Jak-2” value is “no inhibition”.
On to `COc1cccc2c1C(=O)c1c(O)c3c(c(O)c1C2=O)C[C@@](O)(C(=O)CO)C[C@@H]3O[C@H]1C[C@H](N)[C@H](O)[C@H](C)O1` [doxorubicin], for which the “interaction with COMPOUND I in combination” value (“interaction with COMPOUND I” for short) in assay [5] is on record as “Slight synergism or synergy”.
As to `CC[C@]1(O)C[C@@H]2CN(CCc3c([nH]c4ccccc34)[C@@](C(=O)OC)(c3cc4c(cc3OC)N(C)[C@H]3[C@@](O)(C(=O)OC)[C@H](OC(C)=O)[C@]5(CC)C=CCN6CC[C@]43[C@@H]65)C2)C1` [Vinblastine, vinblastine], the “interaction with COMPOUND I” value in assay [5] is “Slight synergism or synergy”.
With `CC(=O)O[C@H]1C(=O)[C@@]2(C)[C@H]([C@H](OC(=O)c3ccccc3)[C@]3(O)C[C@H](OC(=O)[C@H](O)[C@@H](NC(=O)c4ccccc4)c4ccccc4)C(C)=C1C3(C)C)[C@]1(OC(C)=O)CO[C@@H]1C[C@@H]2O` [Taxol, taxol], in assay [5], the “interaction with COMPOUND I” value was “Slight synergism or synergy”.
